Test results taken from patent US11667602B2, “Compounds and their use” (AstraZeneca AB, priority 2020, dated 2023).
In brackets after ≈: the same amount, converted by molar mass. Read-outs that look alike come from different tables or passages of the source.

Tests used:
human RXFP1 = target: T1, human RXFP1 (Homo sapiens, UniProt Q9HBX9); assay: RXFP1 Hu cAMP (Test A); format: cell-based; parameters: expressed in transfected cells; host or cells: Jump-In T-REx CHO-K1 cells (ThermoFisher), induced with 10 ng/ml doxycycline for 24 h
T1 sequence (Q9HBX9 1-757): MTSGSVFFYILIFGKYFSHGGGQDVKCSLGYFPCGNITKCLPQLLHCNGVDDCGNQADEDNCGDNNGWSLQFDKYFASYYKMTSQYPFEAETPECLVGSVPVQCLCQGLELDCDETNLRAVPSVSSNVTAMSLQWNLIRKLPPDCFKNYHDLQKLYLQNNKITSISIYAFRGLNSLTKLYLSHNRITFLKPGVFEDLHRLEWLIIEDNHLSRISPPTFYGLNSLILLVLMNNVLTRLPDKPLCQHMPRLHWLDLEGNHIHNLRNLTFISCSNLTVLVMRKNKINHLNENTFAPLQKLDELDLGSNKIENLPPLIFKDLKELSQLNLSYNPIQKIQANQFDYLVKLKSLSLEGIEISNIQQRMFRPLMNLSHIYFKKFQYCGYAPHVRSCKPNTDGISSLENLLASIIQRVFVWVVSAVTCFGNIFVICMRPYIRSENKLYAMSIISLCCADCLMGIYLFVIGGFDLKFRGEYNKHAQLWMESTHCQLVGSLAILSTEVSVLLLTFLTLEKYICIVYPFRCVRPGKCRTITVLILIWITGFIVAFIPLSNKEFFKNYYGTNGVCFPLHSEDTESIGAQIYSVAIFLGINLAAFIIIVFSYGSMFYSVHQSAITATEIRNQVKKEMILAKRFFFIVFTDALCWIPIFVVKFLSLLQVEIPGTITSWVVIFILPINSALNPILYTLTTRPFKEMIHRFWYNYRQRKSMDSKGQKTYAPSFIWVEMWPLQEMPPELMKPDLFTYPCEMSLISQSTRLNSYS
Procedure, shortened: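 CHO-K1 (Jump-In T-REx), RXFP1 induced w/ 10 ng/ml doxycycline 24 h, cryopreserved. 0.5 mM IBMX final. cAMP by HTRF, 2 h RT, std curve.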

[1] = Human Plasma Protein Binding (Test B); format: in vitro ADME; conditions: fraction unbound (fu)
Procedure, shortened: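 Values given as % free (fu) in human plasma, using the method of Wernevik et al. (2020). For compounds tested more than once, the arithmetic mean is given.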

[2] = Human Hepatocyte Stability (Test D); format: in vitro ADME; conditions: geometric mean if run multiple times; for hepatocyte CLint at 1 µM: human, cryopreserved pooled human hepatocytes (LiverPool 10-Donor); for Test D Human Hepatocyte Stability Clint: human hepatocytes
Procedure, shortened: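 Intrinsic clearance (μL/min/10^6 cells), derived as kV/N from the log-linear loss of parent compound. Compound incubated at 37 °C with cryopreserved pooled human hepatocytes, 0.25×10^6 cells in 0.25 mL L-15; dosing solution 100 μM in acetonitrile. Singlicate incubations, cassette LC-MS; repeats reported as geometric mean.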

[3] = Rat Hepatocyte Stability (Test E); format: in vitro ADME; conditions: geometric mean if run multiple times; for hepatocyte CLint: rat, hepatocytes; for Test E Rat Hepatocyte Stability Clint: rat hepatocytes
Procedure, shortened: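 Intrinsic clearance in rat hepatocytes, expressed as μl/min/10^6 cells, following the literature integrated DMPK panel method. Repeat determinations combined as geometric mean.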

Solubility (Test F) = format: physicochemical; conditions: arithmetic mean if run multiple times
Protocol: The assay was conducted according to the Solubility Assay described in pages 164-167 of Wernevik, J. et al., “A Fully Integrated Assay Panel for Early Drug Metabolism and Pharmacokinetics Profiling”, Assay and Drug Development Technologies, 2020, 18(4), 157-179. Data are reported in Table 36 as solubility ([…]. Where the assay was run multiple times for the same compound, the arithmetic mean is reported.

[4] = Human Liver Microsomal Stability (Test C); format: in vitro ADME; conditions: for microsomal CLint: human, liver microsomes; for Test C Human Liver Microsomal Stability Clint: human liver microsomes
Procedure, shortened: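 CLint (μl/min/mg protein) derived from compound depletion in human liver microsomes following a published standardized early-DMPK protocol; replicate determinations given as arithmetic mean.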

[5] = RXFP1 Hu cAMP, read-out: Test A EC50

SMILES: COc1cc(C#N)c(O[C@H]2CC[C@@](C)(C(=O)O)CC2)cc1C(=O)N[C@@H]1[C@H]2CC[C@H](C2)[C@@H]1C(=O)NC12CC(C1)C2 [Example 141, (1S,4s)-4-(5-(((1S,2R,3S,4R)-3-(Bicyclo[1.1.1]pentan-1-ylcarbamoyl)-bicyclo[2.2.1]heptan-2-yl)carbamoyl)-2-cyano-4-methoxyphenoxy)-1-methylcyclohexane-1-carboxylic acid]
- Test A Sinf (human RXFP1; RXFP1 Hu cAMP): 107%
- EC50 (human RXFP1; [5]): 74 nM
- Test B Human Plasma Protein Binding (% free) [1]: 16 % free
- hepatocyte CLint at 1 µM [2]: < 1 µL/min/1e6 cells
- hepatocyte CLint [3]: 17 µL/min/1e6 cells
- solubility (Solubility (Test F)): 920 µM (≈ 493 µg/mL)
- microsomal CLint [4]: 8.3 µL/min/mg

SMILES: COc1cc(F)c(O[C@H]2CC[C@@H](C(=O)O)CC2)cc1C(=O)N[C@@H]1[C@H]2CC[C@H](C2)[C@@H]1C(=O)NCC(C)(C)C [Example 180, (1S,4s)-4-(2-Fluoro-4-methoxy-5-(((1S,2R,3S,4R)-3-(neopentylcarbamoyl)bicyclo[2.2.1]heptan-2-yl)carbamoyl)phenoxy)cyclohexane-1-carboxylic acid]
- Test A Sinf (human RXFP1; RXFP1 Hu cAMP): 100%
- EC50 (human RXFP1; Test A EC50, RXFP1 Hu cAMP): 950 nM
- Test B Human Plasma Protein Binding (% free) [1]: 14 % free
- hepatocyte CLint at 1 µM [2]: 2.2 µL/min/1e6 cells
- hepatocyte CLint [3]: 130 µL/min/1e6 cells
- solubility (Solubility (Test F)): > 1000 µM
- microsomal CLint [4]: 6.8 µL/min/mg

SMILES: COc1cc(F)c(O[C@H]2CC[C@@](C)(C(=O)O)CC2)cc1C(=O)N[C@@H]1[C@H]2CC[C@H](C2)[C@@H]1C(=O)NC(C(C)C)C(C)C [Example 40]
- Test A Sinf (human RXFP1; RXFP1 Hu cAMP): 97%
- EC50 (human RXFP1; [5]): 810 nM
- Test B Human Plasma Protein Binding (% free) [1]: 3.4 % free
- hepatocyte CLint at 1 µM [2]: 30 µL/min/1e6 cells
- hepatocyte CLint [3]: 52 µL/min/1e6 cells
- solubility (Solubility (Test F)): 2.5 µM (≈ 1.4 µg/mL)
- microsomal CLint [4]: 190 µL/min/mg

SMILES: COc1cc(C#N)c(O[C@H]2CC[C@@](C)(C(=O)O)CC2)cc1C(=O)NC1C2C=CC(CC2)C1C(=O)NCC1(C)CCC1 (single isomer, unassigned) [Example 540, (1R,4s)-4-(2-Cyano-4-methoxy-5-(((1R*,2S*,3R*,4S*)-3-(((1-methylcyclobutyl)methyl)carbamoyl)bicyclo[2.2.2]oct-5-en-2-yl)carbamoyl)phenoxy)-1-methylcyclohexane-1-carboxylic acid]
- Test A Sinf (human RXFP1; RXFP1 Hu cAMP): 104%
- EC50 (human RXFP1; [5]): 20 nM
- Test B Human Plasma Protein Binding (% free) [1]: 6 % free
- hepatocyte CLint at 1 µM [2]: 8.5 µL/min/1e6 cells
- hepatocyte CLint [3]: 19 µL/min/1e6 cells
- solubility (Solubility (Test F)): 1000 µM (≈ 564 µg/mL)
- microsomal CLint [4]: 20 µL/min/mg

SMILES: CCC(C)(C)CNC(=O)[C@H]1[C@@H]2CC[C@@H](C2)[C@H]1NC(=O)c1cc(O[C@H]2CC[C@@](C)(C(=O)O)CC2)c(F)cc1OC [Example 37, (1S,4s)-4-(5-(((1S,2R,3S,4R)-3-((2,2-Dimethylbutyl)carbamoyl)bicyclo[2.2.1]heptan-2-yl)carbamoyl)-2-fluoro-4-methoxyphenoxy)-1-methylcyclohexane-1-carboxylic acid]
- Test A Sinf (human RXFP1; RXFP1 Hu cAMP): 103%
- EC50 (human RXFP1; [5]): 20 nM
- Test B Human Plasma Protein Binding (% free) [1]: 3.8 % free
- hepatocyte CLint at 1 µM [2]: 4.8 µL/min/1e6 cells
- hepatocyte CLint [3]: 22 µL/min/1e6 cells
- solubility (Solubility (Test F)): 830 µM (≈ 454 µg/mL)
- microsomal CLint [4]: 27 µL/min/mg

SMILES: COc1cc(F)c(-c2ccc(CC(=O)O)cc2)cc1C(=O)N[C@H]1[C@@H](C(=O)Nc2cccc(S(=O)(=O)C(F)(F)F)c2)[C@@H]2C=C[C@H]1C2 (racemic) [Example 234]
- Test A Sinf (human RXFP1; RXFP1 Hu cAMP): 110%
- EC50 (human RXFP1; [5]): 88 nM
- Test B Human Plasma Protein Binding (% free) [1]: <0.30 % free
- hepatocyte CLint at 1 µM [2]: 6.5 µL/min/1e6 cells
- hepatocyte CLint [3]: 9.3 µL/min/1e6 cells
- solubility (Solubility (Test F)): 690 µM (≈ 446 µg/mL)
- microsomal CLint [4]: 4.7 µL/min/mg

SMILES: COc1cc(F)c(O[C@H]2CC[C@@](C)(C(=O)O)CC2)cc1C(=O)N[C@@H]1COC[C@@H]1C(=O)Nc1cccc(S(=O)(=O)C(F)(F)F)c1 (relative stereo) [Example 561, (1R,4s)-4-(2-Fluoro-4-methoxy-5-(((3S*,4R*)-4-((3-((trifluoromethyl)sulfonyl)phenyl)carbamoyl)tetrahydrofuran-3-yl)carbamoyl)phenoxy)-1-methylcyclohexane-1-carboxylic acid]
- Test A Sinf (human RXFP1; RXFP1 Hu cAMP): 104%
- EC50 (human RXFP1; [5]): 130 nM
- Test B Human Plasma Protein Binding (% free) [1]: 3.7 % free
- Test D Human Hepatocyte Stability Clint [2]: 6.3 μL/min/10^6 cells
- Test E Rat Hepatocyte Stability Clint [3]: 55 μL/min/10^6 cells
- solubility (Solubility (Test F)): 930 µM (≈ 601 µg/mL)
- Test C Human Liver Microsomal Stability Clint [4]: 17 µL/min/mg

SMILES: COc1cc(F)c(O[C@H]2CC[C@@](C)(C(=O)O)CC2)cc1C(=O)Nc1ccccc1C(=O)NCC1(C)CCC1 [Example 143, (1s,4s)-4-(2-Fluoro-4-methoxy-5-((2-(((1-methylcyclobutyl)methyl)-carbamoyl)phenyl)carbamoyl)phenoxy)-1-methylcyclohexane-1-carboxylic acid]
- Test A Sinf (human RXFP1; RXFP1 Hu cAMP): 130%
- Test B Human Plasma Protein Binding (% free) [1]: 0.68 % free
- hepatocyte CLint at 1 µM [2]: 6.9 µL/min/1e6 cells
- hepatocyte CLint [3]: 24 µL/min/1e6 cells
- solubility (Solubility (Test F)): 1.6 µM (≈ 0.843 µg/mL)
- microsomal CLint [4]: < 3 µL/min/mg

SMILES: COc1cc(F)c(O[C@H]2CC[C@@](C)(C(=O)O)CC2)cc1C(=O)N[C@H]1C[C@@H](OC)C[C@H]1C(=O)Nc1cccc(S(=O)(=O)C(F)(F)F)c1 (stereo in doubt) [Example 523, (1R,4s)-4-(2-fluoro-4-methoxy-5-(((1S*,2R*,4S*)-4-methoxy-2-((3-((trifluoromethyl)sulfonyl)phenyl)carbamoyl)cyclopentyl)carbamoyl)phenoxy)-1-methylcyclohexane-1-carboxylic acid]
- Test A Sinf (human RXFP1; RXFP1 Hu cAMP): 95%
- EC50 (human RXFP1; [5]): 270 nM
- Test B Human Plasma Protein Binding (% free) [1]: 4 % free
- Test D Human Hepatocyte Stability Clint [2]: 49 μL/min/10^6 cells
- Test E Rat Hepatocyte Stability Clint [3]: 34 μL/min/10^6 cells
- solubility (Solubility (Test F)): 920 µM (≈ 621 µg/mL)
- Test C Human Liver Microsomal Stability Clint [4]: >300 µL/min/mg

SMILES: Cc1cc(F)c(O[C@H]2CC[C@@](C)(C(=O)O)CC2)cc1C(=O)N[C@@H]1[C@H]2CC[C@H](C2)[C@@H]1C(=O)NCC1(C)CCC1 [Example 5, (1S,4s)-4-(2-Fluoro-4-methyl-5-(((1S,2R,3S,4R)-3-(((1-methylcyclobutyl)methyl)carbamoyl)bicyclo[2.2.1]heptan-2-yl)carbamoyl)phenoxy)-1-methylcyclohexane-1-carboxylic acid]
- Test A Sinf (human RXFP1; RXFP1 Hu cAMP): 85%
- EC50 (human RXFP1; Test A EC50, RXFP1 Hu cAMP): > 1700 nM
- Test B Human Plasma Protein Binding (% free) [1]: 2.4 % free
- hepatocyte CLint at 1 µM [2]: 15 µL/min/1e6 cells
- hepatocyte CLint [3]: 11 µL/min/1e6 cells
- solubility (Solubility (Test F)): 800 µM (≈ 423 µg/mL)
- microsomal CLint [4]: 16 µL/min/mg

SMILES: COc1cc(F)c(O[C@H]2CC[C@@H](C(=O)O)CC2)cc1C(=O)N[C@@H]1CCC[C@@H]1C(=O)Nc1cccc(S(=O)(=O)C(F)(F)F)c1 [Example 490]
- Test A Sinf (human RXFP1; RXFP1 Hu cAMP): 127%
- EC50 (human RXFP1; [5]): 300 nM
- Test B Human Plasma Protein Binding (% free) [1]: 1.9 % free
- hepatocyte CLint at 1 µM [2]: 17 µL/min/1e6 cells
- hepatocyte CLint [3]: 16 µL/min/1e6 cells
- solubility (Solubility (Test F)): 940 µM (≈ 593 µg/mL)
- microsomal CLint [4]: 30 µL/min/mg

SMILES: COC[C@]1(C(=O)O)CC[C@@H](Oc2cc(C(=O)N[C@@H]3[C@H]4CC[C@H](C4)[C@@H]3C(=O)Nc3cccc(S(=O)(=O)C(F)(F)F)c3)c(OC)cc2F)CC1 [Example 482]
- Test A Sinf (human RXFP1; RXFP1 Hu cAMP): 112%
- EC50 (human RXFP1; [5]): 11 nM
- Test B Human Plasma Protein Binding (% free) [1]: 1.5 % free
- hepatocyte CLint at 1 µM [2]: 18 µL/min/1e6 cells
- hepatocyte CLint [3]: 78 µL/min/1e6 cells
- solubility (Solubility (Test F)): > 1000 µM
- microsomal CLint [4]: 56 µL/min/mg
